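A five-concentration, 48-hour dose response in 96-well plates underlies each endpoint, interpolated linearly between surrounding concentrations. GI50 = concentration required for 50% inhibition of growth.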 Calls of active or inactive are those of the source. Rule as the data show it: active = GI50 up to about 1.1 µM and inactive = higher.

Test systems include MCF7; UO-31; SF-268; HCC 2998; Malme-3M; SK-MEL-2; SR; U-251; RPMI-8226; TK-10; HOP-62; NCI-H23; OVCAR-8; HT-29; SK-MEL-5; OVCAR-4; HOP-92; CAKI-1; SN12C; HL-60.
Holding throughout (assay): DTP human tumour cell line panel, 48 h

As to `Clc1ccc(C(SCc2ccccc2)SCc2ccccc2)cc1`, the GI50 in the test on MCF7, in the test with UO-31, in the test with SF-268, with HCC 2998, with Malme-3M and with SK-MEL-2 was > 10 µM (inactive) in each case. In addition, the GI50 in the test on SR, in the test on U-251, with RPMI-8226, in the test on TK-10, with HOP-62 and with NCI-H23 was > 10 µM (inactive) each time. The GI50 in the test with OVCAR-8, in the test on HT-29, in the test on SK-MEL-5, in the test on OVCAR-4, in the test with HOP-92 and in the test with CAKI-1 was > 10 µM (inactive) throughout. In addition, the GI50 with SN12C and in the test on HL-60 was > 10 µM (inactive) throughout.
Consider `O=[N+]([O-])c1cccc2nc3ccccc3c(NCCNCCO)c12`, for which the concentration for 50% growth inhibition (GI50) (in general, the concentration at which growth is held to half of that of the control) is 0.001 µM (active) in the test with MCF7; 0.07 µM (active) in the test on UO-31; 0.00134 µM (active) in the test on SF-268; 0.00217 µM (active) in the test on HCC 2998; 0.00877 µM (active) with Malme-3M; 0.00281 µM (active) in the test with SK-MEL-2. Also, the GI50 with SR is 0.00112 µM (active); in the test on U-251 it was 0.0118 µM (active); in the test on RPMI-8226 it was 0.00383 µM (active); with TK-10 it was 0.0385 µM (active); in the test on HOP-62 it was 0.0169 µM (active); with NCI-H23 it was 0.00146 µM (active). Besides, the 50% growth inhibitory concentration (GI50) in the test with OVCAR-8 is 0.00733 µM (active); in the test with HT-29, 0.00361 µM (active); with SK-MEL-5 it was 0.00153 µM (active); in the test with OVCAR-4 it was 0.00335 µM (active); in the test with HOP-92 it was 0.00365 µM (active); in the test on CAKI-1, 0.0178 µM (active). In addition, the concentration for 50% growth inhibition (GI50) in the test with SN12C was 0.0122 µM (active); in the test on HL-60, 0.0177 µM (active).
As to `OC(c1cc(C(F)(F)F)nc2c(Cl)cc(Cl)cc12)C1CCCCN1` (stereo unspecified), the GI50 in the test on MCF7 is 12.5 µM (inactive); with UO-31, 0.906 µM (active); with SF-268 it was 16.8 µM (inactive); in the test on HCC 2998 it was > 100 µM (inactive); in the test with SK-MEL-2 it was > 23.3 µM (inactive); in the test with SR, 1.66 µM (inactive). Further, the GI50 in the test with U-251 was 25.4 µM (inactive); in the test on RPMI-8226, 1.95 µM (inactive); in the test on HOP-62, 3.77 µM (inactive); with NCI-H23, 8.55 µM (inactive); in the test on OVCAR-8, 13.2 µM (inactive); in the test on SK-MEL-5 it was 8.65 µM (inactive). In addition, the GI50 in the test on OVCAR-4 was 5.01 µM (inactive); in the test with HOP-92, 7.26 µM (inactive); in the test on CAKI-1, 8.97 µM (inactive); in the test with HL-60, 5.82 µM (inactive).
On to `CC1(O)OC(=O)C2=C1CCC1C2CCC2(C)C(O)CCC12` (stereo unspecified), for which the GI50 in the test on MCF7, in the test with UO-31, in the test on SF-268, in the test on HCC 2998, in the test with Malme-3M and with SR was > 100 µM (inactive) throughout. The GI50 in the test with U-251, with RPMI-8226, in the test with TK-10, with HOP-62, in the test with NCI-H23 and in the test on OVCAR-8 was > 100 µM (inactive) each time. Moreover, the GI50 in the test on HT-29, with SK-MEL-5, in the test on OVCAR-4, with HOP-92, with CAKI-1 and in the test on SN12C was > 100 µM (inactive) throughout. Also, the GI50 with HL-60 was > 100 µM (inactive).
As to `C=C(C)C(=O)[C@@]12C(=O)[C@@H](C)CC[C@H]1[C@H](C)C[C@@H]2C=C(C)C`, the GI50 with MCF7 is 23.9 µM (inactive); in the test with UO-31, 20.2 µM (inactive); in the test with SF-268, 17.2 µM (inactive); in the test on HCC 2998, 14.8 µM (inactive); with Malme-3M, 18 µM (inactive); in the test with SK-MEL-2, 13.8 µM (inactive). Also, the GI50 with SR is > 10 µM (inactive); in the test with U-251, 23.6 µM (inactive); in the test with RPMI-8226 it was 27.9 µM (inactive); in the test with TK-10 it was 47.6 µM (inactive); in the test with HOP-62 it was 34.4 µM (inactive); with NCI-H23 it was 15.4 µM (inactive). Moreover, the GI50 in the test on OVCAR-8 was 30.7 µM (inactive); in the test with HT-29, 14.6 µM (inactive); with SK-MEL-5 it was 19.4 µM (inactive); with OVCAR-4 it was 28.8 µM (inactive); with HOP-92, 25.8 µM (inactive); with CAKI-1 it was 29.4 µM (inactive). Moreover, the GI50 in the test on SN12C was 20.8 µM (inactive).
In the case of `COC(=O)N/N=C(/CC1(O)C(=O)Nc2ccc([N+](=O)[O-])cc21)c1ccccc1` (stereo unspecified), the GI50 in the test on MCF7 was 1.19 µM (inactive); in the test on UO-31, 40.9 µM (inactive); with SF-268, 45.4 µM (inactive); in the test with HCC 2998, 67.1 µM (inactive); in the test with Malme-3M, 33 µM (inactive); with SK-MEL-2, 31.2 µM (inactive). Moreover, the GI50 with SR is 29.9 µM (inactive); with U-251, 29.9 µM (inactive); in the test with RPMI-8226 it was 44.6 µM (inactive); with TK-10 it was 24.9 µM (inactive); with HOP-62, 31 µM (inactive); with NCI-H23 it was 21.3 µM (inactive). Further, the GI50 with OVCAR-8 is 29.4 µM (inactive); in the test on HT-29, 31.4 µM (inactive); in the test with SK-MEL-5, 23.9 µM (inactive); in the test on OVCAR-4 it was 47.3 µM (inactive); in the test on HOP-92 it was 33 µM (inactive); in the test on CAKI-1, 75.7 µM (inactive). For the same molecule, the GI50 with SN12C was > 74 µM (inactive); with HL-60 it was 35 µM (inactive).
For `O=[N+]([O-])c1ccc(-c2nc3cc([N+](=O)[O-])ccc3[nH]2)cc1`, the GI50 is 31 µM (inactive) in the test on MCF7; 7.66 µM (inactive) in the test on UO-31; 44.9 µM (inactive) in the test with SF-268; 50.2 µM (inactive) in the test on HCC 2998; 31.3 µM (inactive) with Malme-3M; 23.6 µM (inactive) in the test on SK-MEL-2. Moreover, the GI50 in the test on SR is 29 µM (inactive); in the test with U-251, 25.4 µM (inactive); in the test on RPMI-8226, 13.7 µM (inactive); in the test on TK-10, 52.2 µM (inactive); in the test with HOP-62 it was 31.9 µM (inactive); in the test with NCI-H23, 21.4 µM (inactive). In addition, the GI50 in the test with OVCAR-8 was 22.4 µM (inactive); with HT-29, 28.4 µM (inactive); in the test on SK-MEL-5, 16.8 µM (inactive); in the test with OVCAR-4, 47.2 µM (inactive); in the test with HOP-92 it was 19.6 µM (inactive); in the test with CAKI-1, 32.7 µM (inactive). For the same molecule, the GI50 in the test with SN12C is 23.9 µM (inactive).
Turning to `COc1ccc(C2C(=O)c3ccc(OC)cc3OC2c2cccnc2)cc1` (stereo unspecified), the GI50 was > 100 µM (inactive) in the test with MCF7; > 100 µM (inactive) in the test on UO-31; 49.8 µM (inactive) with SF-268; > 100 µM (inactive) in the test with HCC 2998; > 100 µM (inactive) in the test with Malme-3M; > 100 µM (inactive) in the test on SK-MEL-2. Besides, the GI50 in the test on SR was > 100 µM (inactive); in the test with U-251 it was 70.3 µM (inactive); in the test on RPMI-8226 it was > 100 µM (inactive); in the test on TK-10, 46.7 µM (inactive); in the test on HOP-62, 33.2 µM (inactive); in the test on NCI-H23, > 100 µM (inactive). For the same molecule, the GI50 is 56 µM (inactive) with OVCAR-8; > 100 µM (inactive) with HT-29; > 100 µM (inactive) in the test with SK-MEL-5; > 100 µM (inactive) in the test with OVCAR-4; 22.5 µM (inactive) in the test with HOP-92; > 100 µM (inactive) in the test on CAKI-1. Also, the GI50 in the test on SN12C and in the test with HL-60 was > 100 µM (inactive) throughout.
On to `O=c1c(-c2ccc(O)cc2)coc2cc(O)cc(O)c12` [GENISTEIN], for which the GI50 in the test on MCF7 was > 100 µM (inactive); in the test with UO-31, 24.9 µM (inactive); in the test on SF-268 it was > 100 µM (inactive); in the test on HCC 2998, > 100 µM (inactive); with Malme-3M, > 100 µM (inactive); in the test with SR, 56.8 µM (inactive). Moreover, the GI50 with U-251 was > 100 µM (inactive); in the test on RPMI-8226, 77.8 µM (inactive); with TK-10 it was > 100 µM (inactive); in the test on NCI-H23, > 100 µM (inactive); in the test on OVCAR-8 it was > 100 µM (inactive); in the test with HT-29, > 100 µM (inactive). Moreover, the GI50 with SK-MEL-5 was > 100 µM (inactive); in the test on OVCAR-4, > 100 µM (inactive); with HOP-92, > 100 µM (inactive); in the test on SN12C, 52.5 µM (inactive); in the test on HL-60, 69.8 µM (inactive).
Consider `CC(=O)OCC1OC(N2C(=O)NC(=O)C3C=C4CCCCC4=CC32)C(OC(C)=O)C1OC(C)=O` (stereo unspecified), for which the GI50 in the test on MCF7, in the test on UO-31, in the test with HCC 2998, in the test with Malme-3M, in the test with SK-MEL-2 and in the test on SR was > 100 µM (inactive) in each case. Moreover, the GI50 with U-251, in the test on RPMI-8226, in the test on TK-10, with NCI-H23, in the test with SK-MEL-5 and with OVCAR-4 was > 100 µM (inactive) in each case. In addition, the GI50 in the test with HOP-92, in the test with CAKI-1, with SN12C and with HL-60 was > 100 µM (inactive) each time.

The values above are taken from ChEMBL document CHEMBL1201862, “PubChem BioAssay data set” (2004).
